# Experiments:
# Format in all cases: in vivo, mouse
# CT26/luc tumor [1] = experiment: Survival of CT26/luc tumor-bearing BALB/c mice; details: 10 mg/kg/d by gavage, never 43.1±2.6 days
# Description: (§1) Second, all animal study protocols were approved by the Institutional Animal Care and Use Committee (IACAU) of National Yang Ming University. Mirtazapine (0.25 mg) was dissolved in 0.05 ml of 0.9% NaCl plus 0.5% absolute ethanol for each mouse (i.e. 10 mg/kg.) Male BALB/c mice (initial weights 25±2 g, and purchased from the National Laboratory Animal Center, Taipei, Taiwan) were housed in the cages, five mice per cage, under a 12:12 h reverse light/dark cycle with lights off at 6 pm Animals were handled and weighed daily for a week to reduce any non-specific stress responses. And then, please refer to FIG. 1A and FIG. 1B, FIG. 1A and FIG. 1B are diagrams showing the experimental designs according to an embodiment of the present invention. […] “Wild-type” means the mice are monitored without tumor inoculation and mirtazapine treatment, drug means the mice are monitored with continuous mirtazapine treatment but without tumor inoculation, never means the mice are monitored with tumor inoculation and daily 0.05 ml of 0.9% NaCl plus 0.5% absolute ethanol treatment but without mirtazapine treatment, always means the mice are monitored with mirtazapine treatment initiated 2 weeks before the tumor inoculation, and concurrent means the mice are monitored with tumor inoculation and mirtazapine treatment on the same day, and after means the mice are monitored with mirtazapine treatment initiated 2 weeks post the tumor inoculation. That is, the mice were assayed on day 22 for behaviors, and then sacrificed for the measurement of lymphocyte subsets and performed with ex vivo autoradiography.
# Accordingly, the CT26/luc cells (2×10^6 cells/200 μL) suspended in the serum-free RPMI medium were transplanted subcutaneously into the dorsal region of the right thighs of the BALB/c mice. 10 mg/kg/d mirtazapine dissolved in 0.9% sodium chloride and 0.5% ethanol was administered to mice by gavage daily till mice expired or terminated on day 67 post tumor inoculation. Survival rate and interval were assayed for never, always, concurrent, and after (n=10 per group). […]
# CT26/luc tumor [2] = experiment: CT26/luc tumor growth in BALB/c mice (caliper tumor volume, BLI); set-up: mean tumor growth time / mean tumor growth delay time: unit not given here; details: for mean tumor growth delay time: growth time of treated group minus that of never; for mean tumor growth time: time at which tumor volume reaches 400 mm; for mean tumor growth inhibition rate: growth rate of treated group/growth rate of never
# Description: The details in preparing the materials and processing relative analyses will be illustrated as follows. First, CT-26 murine colon carcinoma cells (obtained from Taiwan Liposome Company, Taipei, Taiwan) were transfected with the luciferase gene (hereafter called “CT26/luc”). The CT26/luc tumor cells were cultured in RPMI 1640 medium (Invitrogen) supplemented with 10% fetal bovine serum (Hyclone), 100 units/ml of penicillin, and […] streptomycin (Gibco-BRL) at 37° C. in a 5% CO2 atmosphere.
# as §1
# Accordingly, the CT26/luc cells (2×10^6 cells/200 μL) suspended in the serum-free RPMI medium were transplanted subcutaneously into the dorsal region of the right thighs of the BALB/c mice. 10 mg/kg/d mirtazapine dissolved in 0.9% sodium chloride and 0.5% ethanol was administered to mice by gavage daily till mice expired or terminated on day 67 post tumor inoculation. Survival rate and interval were assayed for never, always, concurrent, and after (n=10 per group).
# As to the tumor growth, it was monitored using a digital caliper twice a week. The tumor volume was calculated according the following formula: […]
# 0.5236×length×width×thickness
# Bioluminescence imaging (hereafter called “BLI”) used for tumor size tracking was performed with an IVIS50 animal imaging system (Xenogen Corp., USA).
# CT26/luc tumor [3] = experiment: CT26/luc tumor growth in SCID mice; details: always-SCID vs never-SCID
# Description: Also, Applicant divides other six-weeks-old immunodeficient male SCID mice (purchased from the National Laboratory Animal Center, Taiwan) into two groups, such as the group named “never-SCID” (hereafter called “never-SCID”) and the group named “always-SCID” (hereafter called “always-SCID”), as control groups for verifying the involvement of the immune system in the inhibition of the tumor growth by mirtazapine. Never-SCID means that the mice are monitored with tumor inoculation but without mirtazapine treatment, and always-SCID means the mice are monitored with mirtazapine treatment initiated 2 weeks before tumor inoculation. As to the tumor growth, it was monitored using a digital caliper twice a week. The tumor volume was calculated according the following formula: 0.5236×length×width×thickness Bioluminescence imaging (hereafter called “BLI”) used for tumor size tracking was performed with an IVIS50 animal imaging system (Xenogen Corp., USA).
# TNF-α = experiment: Serum TNF-α ELISA; details: tumor-bearing mice with vs without mirtazapine; weekly up to 6 weeks post tumor inoculation
# Description: As to the quantification of TNF-α, the whole blood withdrawn from the pouch of each mouse once a week for up to 6 weeks was centrifuged at 600×g for 20 min, and serum was collected. The serum TNF-α level was evaluated with an ELISA kit (eBioscience, USA).
# CD4+ and CD8+ T cells = experiment: Immunohistostaining of infiltrating CD4+ and CD8+ T cells in tumor tissues; details: concurrent and always vs never; day 42 post tumor inoculation; p<0.01 and p<0.001
# Description: Immunohistochemistry (IHC) of CD4 and CD8 was also performed on day 42 post the tumor inoculation. Tumors were then removed, paraffin embedded, and 5-mm sectioning was performed. The sections were immunohistostained with antibodies against CD4 (BioLegend, USA) and CD8 (BioLegend, USA), respectively. The procedures of immunohistostaining were followed the protocols provided with the IHC kit (Millipore, USA). All images were digitally captured on a Scanscope CS system (Aperio, USA).
# IFN-γ = IFN-γ level in tumor by ELISA; details: tumor lysate 6 weeks after tumor inoculation, 2 mg tumor protein
# Description: And then, the level of IFN-γ in the tumor was determined using an ELISA kit (R&D Systems, Taiwan). Briefly, 6 weeks after tumor inoculation, the mice were sacrificed and the tumors were quickly removed and minced, then added with lysis buffer containing 1% protease inhibitor cocktail (T-PER tissue protein extraction reagent, Thermo Scientific, USA). After sonication, the cell mixture was centrifuged with 15000 rpm (Kubota centrifuge 1700, Japan) at 4° C. for 10 min The supernatant was collected for the protein quantification using bovine serum albumin as the standard. Two mg of the tumor proteins was used for the quantification of IFN-γ.
smiles,measurement,setting,value
CN1CCN2c3ncccc3Cc3ccccc3C2C1 (stereo not shown) [mirtazapine],survival time,CT26/luc tumor [1]; group after,57.01 ± 3.2 days
same,survival time,"CT26/luc tumor [1]; group always, terminated on day 67",66.91 ± 0.1 days
same,survival time,CT26/luc tumor [1]; group concurrent,63.61 ± 1.5 days
same,tumor growth inhibition,"CT26/luc tumor [2]; always, concurrent and after vs never, day 22-47 after tumor inoculation, p<0.01",significant tumor growth inhibition
same,mean tumor growth delay time,CT26/luc tumor [2]; group Always (2 weeks before inoculation),18.8
same,mean tumor growth time,CT26/luc tumor [2]; group Always: mirtazapine 10 mg/kg/d by gavage initiated 2 weeks before tumor inoculation,41.3
same,mean tumor growth inhibition rate,CT26/luc tumor [2]; group Always,1.8
same,mean tumor growth delay time,CT26/luc tumor [2]; group Concurrent (same day as inoculation),8.2
same,mean tumor growth time,CT26/luc tumor [2]; group Concurrent: mirtazapine 10 mg/kg/d from the day of tumor inoculation,30.9
same,mean tumor growth inhibition rate,CT26/luc tumor [2]; group Concurrent,1.4
same,mean tumor growth delay time,CT26/luc tumor [2]; group after (2 weeks post inoculation),2.8
same,mean tumor growth time,CT26/luc tumor [2]; group after: mirtazapine 10 mg/kg/d initiated 2 weeks post tumor inoculation,25.4
same,mean tumor growth inhibition rate,CT26/luc tumor [2]; group after,1.1
same,tumor inhibition effect in SCID mice,CT26/luc tumor [3],not found
same,serum TNF-α level,TNF-α,no significant difference
same,infiltrating CD4+ and CD8+ cells/0.1 mm^2 tumor tissues,CD4+ and CD8+ T cells,significantly increased numbers
same,IFN-γ in tumor,IFN-γ; group Always,85.35 ± 4.5 pg/mL
same,IFN-γ in tumor,IFN-γ; group Concurrent,39.42 ± 7.42 pg/mL
same,IFN-γ in tumor,IFN-γ; group after,19.60 ± 1.13 pg/mL
